The test system of this assay is human peripheral blood mononuclear cells. Description: Inhibition of LPS-stimulated TNFα release from human peripheral blood mononuclear cells (TNFα screen). In kind it is cell-based. As to conditions: LPS-stimulated human PBMC, 18 hours incubation, TNFα in supernatant by ELISA. As for the experimental part: Venous blood is collected from healthy volunteers and the mononuclear cells purified by centrifugation through Histopaque (Ficoll) cushions. TNFα production from these cells is stimulated by addition of lipopolysaccharide. After 18 hours incubation in the presence of LPS, the cell supernatant is removed and the concentration of TNFα in the supernatant determined by ELISA.

In turn, `CSc1cccc(Oc2ncc(F)cc2C(=O)N[C@H]2CC[C@@H](NC(=O)c3cc(C(C)C)n(CCO)n3)CC2)c1` [Example 10, Syn-5-Fluoro-N-(4-{[1-(2-hydroxy-ethyl)-5-isopropyl-1H-pyrazole-3-carbonyl]-amino}-cyclohexyl)-2-(3-methylsulfanyl-phenoxy)-nicotinamide] showed an IC50 of 2.5 nM. With “Syn-5-Fluoro-N-{4-[2-(2-hydroxy-ethoxy)-5-methyl-benzoylamino]-cyclohexyl}-2-(3-methylsulfanyl-phenoxy)-nicotinamide [Example 11]”, the midpoint of inhibition, the IC50, lay at 0.8 nM. Molecule “Syn-5-Fluoro-N-(4-{[1-(2-hydroxy-ethyl)-5-methyl-1H-pyrazole-3-carbonyl]-amino}-cyclohexyl)-2-(3-methylsulfanyl-phenoxy)-nicotinamide [Example 8]” showed an IC50 of 0.2 nM. “Syn-5-Fluoro-N-(4-{[1-(2-hydroxy-ethyl)-1H-pyrazole-3-carbonyl]-amino}-cyclohexyl)-2-(3-methylsulfanyl-phenoxy)-nicotinamide [Example 5]”: the IC50 was found to be 0.24 nM. On to “Syn-N-{4-[5-Chloro-2-(2-hydroxy-ethoxy)-benzoylamino]-cyclohexyl}-5-fluoro-2-(3-methylsulfanyl-phenoxy)-nicotinamide [Example 14]”, for which the half-inhibitory concentration (IC50) came to 0.6 nM.

For `CSc1cc(Oc2ncc(F)cc2C(=O)N[C@H]2CC[C@@H](NC(=O)c3ccccc3OCCO)CC2)ccc1F` [Example 9, Syn-5-Fluoro-2-(4-fluoro-3-methylsulfanyl-phenoxy)-N-{4-[2-(2-hydroxy-ethoxy)-benzoylamino]-cyclohexyl}-nicotinamide], the concentration for half-maximal inhibition (IC50) turned out to be 0.36 nM. Compared with the last molecule, the IC50 is about 1.7-fold lower. With “Syn-5-Fluoro-N-{4-[2-(2-hydroxy-ethoxy)-3-methyl-benzoylamino]-cyclohexyl}-2-(3-methylsulfanyl-phenoxy)-nicotinamide [Example 13]”, the midpoint of inhibition, the IC50, lay at 0.07 nM. For “Syn-N-(4-{[5-Ethyl-1-(2-hydroxy-ethyl)-1H-pyrazole-3-carbonyl]-amino}-cyclohexyl)-5-fluoro-2-(3-methylsulfanyl-phenoxy)-nicotinamide [Example 17]”, the IC50 was 0.05 nM. In turn, `CSc1cccc(Oc2ncc(F)cc2C(=O)N[C@H]2CC[C@@H](NC(=O)c3cn(CCO)cn3)CC2)c1` [Example 3, Syn-5-Fluoro-N-(4-{[1-(2-hydroxy-ethyl)-1H-imidazole-4-carbonyl]-amino}-cyclohexyl)-2-(3-methylsulfanyl-phenoxy)-nicotinamide] showed an IC50 of 1.6 nM.

“Syn-5-Chloro-N-{4-[2-(2-hydroxy-ethoxy)-benzoylamino]-cyclohexyl}-2-(3-methylsulfanyl-phenoxy)-nicotinamide [Example 18]” yielded an IC50 of 0.15 nM. With “Syn-N-{4-[4-Chloro-2-(2-hydroxy-ethoxy)-benzoylamino]-cyclohexyl}-5-fluoro-2-(3-methylsulfanyl-phenoxy)-nicotinamide [Example 15]” the figure was 1.6 nM; with “Syn-5-Fluoro-N-{4-[2-(2-hydroxy-ethoxy)-4-methyl-benzoylamino]-cyclohexyl}-2-(3-methylsulfanyl-phenoxy)-nicotinamide [Example 12]”, 0.3 nM.

Molecule `CSc1cccc(Oc2ncc(F)cc2C(=O)N[C@H]2CC[C@@H](NC(=O)c3ccc(CO)cc3O)CC2)c1` [Example 2, Syn-5-Fluoro-N-[4-(2-hydroxy-4-hydroxymethyl-benzoylamino)-cyclohexyl]-2-(3-methylsulfanyl-phenoxy)-nicotinamide] showed an IC50 of 0.6 nM. This IC50 lies about 2-fold higher than the previous one. With “Syn-5-Fluoro-N-(4-{[1-(2-hydroxy-ethyl)-1H-pyrazole-4-carbonyl]-amino}-cyclohexyl)-2-(3-methylsulfanyl-phenoxy)-nicotinamide [Example 7]”, the IC50 worked out at 4.6 nM.

The values above are taken from patent US7056934B2, “Nicotinamide derivatives useful as PDE4 inhibitors” (Pfizer Inc, priority 2003, dated 2006).
